Results from patent US4220641A, “Organic compounds” (Sandoz Ltd., priority 1977, dated 1980).

What was measured:
[1] = system: mice spleen lymphoctyes stimulated with Concanavalin A; assay: lymphocyte stimulation test according to Janossy in vitro; format: cell-based; settings: concentrations of 0.01 to 10.0 μg/ml, Concanavalin A stimulated mice spleen lymphocytes
[2] = system: ear swelling; assay: Oxazolon test in mice; format: in vivo; settings: 5×70 mg/kg p.o.
Protocol: (b) Oxazolon test in mice:
A decrease in the ear swelling is observed upon administration of 5×70 mg/kg p.o. of the compound.

| Compound | inhibition of H^3-thymidine incorporation [1] | inhibition of the blastogenese [1] | inhibition of the proliferation rate [1] | ear swelling [2] |
| --- | --- | --- | --- | --- |
| C/C=C/C[C@@H](C)[C@@H](O)[C@H]1C(=O)N[C@@H](C(C)C)C(=O)N(C)CC(=O)N(C)[C@@H](CC(C)C)C(=O)N[C@@H](C(C)C)C(=O)N(C)[C@@H](CC(C)C)C(=O)N[C@@H](C)C(=O)N[C@H](C)C(=O)N(C)[C@@H](CC(C)C)C(=O)N(C)[C@@H](CC(C)C)C(=O)N(C)[C@@H](C(C)C)C(=O)N1C [cyclosporin D] | strong inhibition | strong inhibition | strong inhibition | decrease |
| CCCC[C@@H](C)[C@@H](O)C1C(=O)N[C@@H](C(C)C)C(=O)N(C)CC(=O)N(C)[C@@H](CC(C)C)C(=O)N[C@@H](C(C)C)C(=O)N(C)[C@@H](CC(C)C)C(=O)N[C@@H](C)C(=O)N[C@H](C)C(=O)N(C)[C@@H](CC(C)C)C(=O)N(C)[C@@H](CC(C)C)C(=O)N(C)[C@@H](C(C)C)C(=O)N1C (some centres unmarked) [dihydrocyclosporin D] | strong inhibition | strong inhibition | strong inhibition | decrease |
